System: ChAT
Test: ChAT immunoreactivity (MICE assay)
Type: cell-based, rat
Description: In vitro experiments were used to examine the effects of ethanol on receptor binding and choline acetyltransferase (ChAT) and acetylcholinesterase (AChE) expression in cerebellar neurons. Primary neuronal cultures were generated with postnatal day 8 rat pup cerebellar tissue (Nikolic et al. Genes Dev. 10:816 (1996)). The cultures were maintained with Dulbecco's modified Eagle's medium (DMEM) supplemented with 5% fetal calf serum, 4 mM glutamine, 100 μM non-essential amino acid mixture (Gibco-BRL, Grand Island, N.Y.), 25 mM KCl, and 9 g/L glucose. Ethanol treatment was accomplished by placing the cultures (seeded in 6-well dishes or 96-well plates) in sealed chambers in which 50 mM ethanol was vaporized from a reservoir tray (de la Monte et al. Alcohol Clin. Exp. Res. 24:716 (2000); Banerjee et al. Alcohol Clin. Exp. Res. 22:2093 (1998)). Control cultures were identically treated but with water added to the reservoir tray. The chambers were flushed with gas containing 75% nitrogen, 20% oxygen, and 5% carbon dioxide. After 96 hours incubation at 37° C., the cells were harvested to measure insulin, IGF-I, and IGF-II receptor binding. Alternatively, the cells were serum-starved for 12 hours and then stimulated with 10 nM insulin, […], 25 nM IGF-II, or vehicle for 16 hours, and RNA was harvested to measure ChAT and AChE expression. Parallel 96-well cultures stimulated with growth factors for 10 minutes were used to measure ATP, or for 16 hours to measure viability, and ChAT or AChE immunoreactivity. To investigate the role of membrane cholesterol content in relation to receptor binding, control and ethanol-exposed cells were treated with vehicle, 10 mM Methyl-β-cyclodextrin (MβCD), or 10 mM aqueous soluble cholesterol in Locke's buffer (154 mM NaCl, 5.6 mM KCl, 2.3 mM CaCl2, 1.0 mM MgCl2, 3.6 mM NaHCO3, 5 mM glucose, 5 mM Hepes, pH 7.4) for 3 hours and then harvested for binding assays. To examine the effects of membrane cholesterol content on growth factor stimulated neuronal viability and function, identically treated 96-well cultures were stimulated with vehicle, 10 nM insulin, 10 nM IGF-I, or 25 nM IGF-II for 10 minutes and then analyzed for ATP content, or for 16 hours and then used to measure viability and ChAT or AChE immunoreactivity with the MICE assay (de la Monte et al., Biotechniques 26:1073 (1999)). ATP content was measured with the ATPLite assay (Packard, Meriden, Conn.). Viability was measured using the CyQuant assay (Molecular Probes, Eugene, Oreg.). Immunoreactivity was measured directly in the cultured wells using the microtiter immunocytochemical ELISA (MICE) assay (de la Monte et al., Biotechniques 26:1073 (1999)).
The concentration of ethanol used was within the range detected in human alcoholics (Fulop et al., Am. J. Med. 80:191 (1986); Jagger et al., Neurosurgery 15:303 (1984)). ChAT and AChE immunoreactivity were measured directly in the cultured cells using the MICE assay (cellular ELISA), with values normalized to cell density.
The effects of cholesterol or MβCD treatment on neuronal viability (FIGS. 19A-19C), ATP production (energy metabolism; FIGS. 19D-19F), ChAT (FIGS. […]) and AChE (FIGS. 19J-19L) immunoreactivity were examined in cells that were treated as described above and stimulated 12 hours with vehicle (control), 10 nM insulin, 10 nM IGF-I, or 25 nM IGF-II in serum-free medium. All assays were performed using 96-well cultures. Viability was measured using the CyQuant assay and ATP content was measured using the ATPLite assay.

[1] = 10 mM for 3 hours, control cells

Methyl-β-cyclodextrin [MβCD]
IGF-I- and IGF-II-stimulated ChAT [1]: significantly increased
insulin-stimulated ChAT [1]: abolished the insulin-stimulated increases in ChAT
ChAT expression relative to control (10 mM for 3 hours, ethanol-exposed cells, independent of growth factor stimulation): broadly reduced levels

CCO [ethanol]
ChAT immunoreactivity (50 mM ethanol for 96 hours, basal, insulin-stimulated and IGF-I stimulated, relative to control): significantly reduced

CC(C)CCC[C@@H](C)[C@H]1CC[C@H]2[C@@H]3CC=C4C[C@@H](O)CC[C@]4(C)[C@H]3CC[C@]12C [cholesterol]
basal and growth factor stimulated ChAT expression [1]: muted
insulin-, IGF-I-, and IGF-II-stimulated levels of ChAT (10 mM for 3 hours, ethanol-exposed cells, relative to vehicle-treated cells): significantly increased

— patent US9308198B2, “Treatment, prevention, and reversal of alcohol-induced brain disease” (priority 2006, dated 2016)
